Patent publication US20230322761A1, “DEGRADATION OF BRUTON'S TYROSINE KINASE (BTK) BY CONJUGATION OF BTK INHIBITORS WITH E3 LIGASE LIGAND AND METHODS OF USE” (BEIGENE, LTD., priority 2020, published 2023)

Biological target: T1, BTK (Homo sapiens, UniProt Q06187)
T1 construct: endogenous in cells; host or cells: TMD-8 cells
Experiment: BTK degradation in TMD-8 cells, HTRF assay after 6 h treatment
Format: cell-based
Conditions: IC50 (DC50) of BTK degradation
Summary of the method: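 TMD-8 cells treated for 6 h with 8 compound doses in 6-fold dilution steps from a 1 mM 500× DMSO stock (0.2% DMSO), then lysed 30 min at room temperature. BTK in lysate detected by HTRF (665/620 nm) after overnight antibody incubation; DC50 from four-parameter curve fit.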

T1 sequence (Q06187 whole entry): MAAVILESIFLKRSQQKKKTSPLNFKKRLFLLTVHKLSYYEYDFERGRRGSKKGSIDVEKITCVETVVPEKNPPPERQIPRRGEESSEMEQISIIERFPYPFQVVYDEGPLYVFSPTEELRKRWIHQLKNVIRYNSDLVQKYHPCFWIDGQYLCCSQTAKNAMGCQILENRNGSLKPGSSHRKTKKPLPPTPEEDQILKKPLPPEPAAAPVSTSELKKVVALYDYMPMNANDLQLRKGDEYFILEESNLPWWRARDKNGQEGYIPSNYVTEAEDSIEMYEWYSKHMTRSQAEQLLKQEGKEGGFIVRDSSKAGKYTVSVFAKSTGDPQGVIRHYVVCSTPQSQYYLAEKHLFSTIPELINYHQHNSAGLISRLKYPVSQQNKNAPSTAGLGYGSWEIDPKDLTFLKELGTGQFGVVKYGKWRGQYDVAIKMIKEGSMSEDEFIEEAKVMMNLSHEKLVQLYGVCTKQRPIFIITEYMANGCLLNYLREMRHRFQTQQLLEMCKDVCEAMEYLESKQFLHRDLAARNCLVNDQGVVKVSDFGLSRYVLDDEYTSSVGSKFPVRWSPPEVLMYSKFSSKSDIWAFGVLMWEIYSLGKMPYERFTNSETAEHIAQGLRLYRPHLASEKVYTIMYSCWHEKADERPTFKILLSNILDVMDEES

| SMILES | DC50 |
| --- | --- |
| Cc1cc(CCN2CCN(c3ccc(-c4cnc5[nH]nc(-c6ccc([C@@H](C)NC(=O)c7noc(C(C)(C)C)n7)c(C)c6)c5c4)nc3)CC2)ncc1C1CCC(=O)NC1=O (stereo partly drawn) [Example 147, 5-(tert-butyl)-N-((1R)-1-(4-(5-(5-(4-(2-(5-(2,6-dioxopiperidin-3-yl)-4-methylpyridin-2-yl)ethyl)piperazin-1-yl)pyridin-2-yl)-1H-pyrazolo[3,4-b]pyridin-3-yl)-2-methylphenyl)ethyl)-1,2,4-oxadiazole-3-carboxamide] | 2.11 nM |
| Cc1cc(CCN2CCN(c3ccc(-c4cnc5[nH]nc(-c6ccc([C@@H](C)NC(=O)c7noc(C(C)(C)C)n7)c(C)c6F)c5c4)cc3)CC2)ncc1C1CCC(=O)NC1=O (stereo partly drawn) [Example 148, 5-(tert-butyl)-N-((1R)-1-(4-(5-(4-(4-(2-(5-(2,6-dioxopiperidin-3-yl)-4-methylpyridin-2-yl)ethyl)piperazin-1-yl)phenyl)-1H-pyrazolo[3,4-b]pyridin-3-yl)-3-fluoro-2-methylphenyl)ethyl)-1,2,4-oxadiazole-3-carboxamide] | 1.84 nM |
| Cc1cc(CCN2CCN(c3ccc(-c4cnc5[nH]nc(-c6ccc([C@@H](C)NC(=O)c7noc(C(C)(C)C)n7)c(CO)c6)c5c4)cc3)CC2)ncc1C1CCC(=O)NC1=O (stereo partly drawn) [Example 149, 5-(tert-butyl)-N-((1R)-1-(4-(5-(4-(4-(2-(5-(2,6-dioxopiperidin-3-yl)-4-methylpyridin-2-yl)ethyl)piperazin-1-yl)phenyl)-1H-pyrazolo[3,4-b]pyridin-3-yl)-2-(hydroxymethyl)phenyl)ethyl)-1,2,4-oxadiazole-3-carboxamide] | 1.6 nM |
| Cc1cc(-c2n[nH]c3ncc(-c4ccc(N5CCN(CCc6ccc([C@H]7CCC(=O)NC7=O)cc6)CC5)cc4)cc23)ccc1CNC(=O)c1cn(C(C)(C)C)nn1 [Example 150, (R)-1-(tert-butyl)-N-(4-(5-(4-(4-(4-(2,6-dioxopiperidin-3-yl)phenethyl)piperazin-1-yl)phenyl)-1H-pyrazolo[3,4-b]pyridin-3-yl)-2-methylbenzyl)-1H-1,2,3-triazole-4-carboxamide] | 8.88 nM |
| Cc1cc(-c2n[nH]c3ncc(-c4ccc(N5CCN(CCc6ccc([C@@H]7CCC(=O)NC7=O)cc6)CC5)cc4)cc23)ccc1CNC(=O)c1cn(C(C)(C)C)nn1 [Example 151, (S)-1-(tert-butyl)-N-(4-(5-(4-(4-(4-(2,6-dioxopiperidin-3-yl)phenethyl)piperazin-1-yl)phenyl)-1H-pyrazolo[3,4-b]pyridin-3-yl)-2-methylbenzyl)-1H-1,2,3-triazole-4-carboxamide] | 17.8 nM |
| Cc1cc(-c2n[nH]c3ncc(-c4ccc(C5CCN(CCc6ccc([C@H]7CCC(=O)NC7=O)cc6)CC5)nc4)cc23)ccc1[C@@H](C)NC(=O)c1noc(C(C)(C)C)n1 [Example 152, 5-(tert-butyl)-N—((R)-1-(4-(5-(6-(1-(4-((R)-2,6-dioxopiperidin-3-yl)phenethyl)piperidin-4-yl)pyridin-3-yl)-1H-pyrazolo[3,4-b]pyridin-3-yl)-2-methylphenyl)ethyl)-1,2,4-oxadiazole-3-carboxamide] | 1.03 nM |
| Cc1cc(-c2n[nH]c3ncc(-c4ccc(C5CCN(CCc6ccc([C@@H]7CCC(=O)NC7=O)cc6)CC5)nc4)cc23)ccc1[C@@H](C)NC(=O)c1noc(C(C)(C)C)n1 [Example 153, 5-(tert-butyl)-N—((R)-1-(4-(5-(6-(1-(4-((S)-2,6-dioxopiperidin-3-yl)phenethyl)piperidin-4-yl)pyridin-3-yl)-1H-pyrazolo[3,4-b]pyridin-3-yl)-2-methylphenyl)ethyl)-1,2,4-oxadiazole-3-carboxamide] | 11.8 nM |
| Cc1cc(CCN2CCN(c3ccc(-c4cnc5[nH]nc(-c6ccc([C@@H](C)NC(=O)c7nc(C(C)(C)C)no7)c(C)c6)c5c4)cc3)CC2)ncc1C1CCC(=O)NC1=O (stereo partly drawn) [Example 154, 3-(tert-butyl)-N-((1R)-1-(4-(5-(4-(4-(2-(5-(2,6-dioxopiperidin-3-yl)-4-methylpyridin-2-yl)ethyl)piperazin-1-yl)phenyl)-1H-pyrazolo[3,4-b]pyridin-3-yl)-2-methylphenyl)ethyl)-1,2,4-oxadiazole-5-carboxamide] | 3.27 nM |
| Cc1cc(-c2n[nH]c3ncc(-c4ccc(N5CCN(CCc6ccc(C7CCC(=O)NC7=O)c(C)n6)CC5)cc4)cc23)ccc1[C@@H](C)NC(=O)c1noc(C(C)(C)C)n1 (stereo partly drawn) [Example 155, 5-(tert-butyl)-N-((1R)-1-(4-(5-(4-(4-(2-(5-(2,6-dioxopiperidin-3-yl)-6-methylpyridin-2-yl)ethyl)piperazin-1-yl)phenyl)-1H-pyrazolo[3,4-b]pyridin-3-yl)-2-methylphenyl)ethyl)-1,2,4-oxadiazole-3-carboxamide] | 2.92 nM |
| Cc1cc(-c2n[nH]c3ncc(-c4ccc(N5CCN(CCc6ccc(C7CCC(=O)NC7=O)c(C)n6)CC5)cc4)cc23)ccc1[C@@H](C)NC(=O)c1nc(C(C)(C)C)no1 (stereo partly drawn) [Example 156, 3-(tert-butyl)-N-((1R)-1-(4-(5-(4-(4-(2-(5-(2,6-dioxopiperidin-3-yl)-6-methylpyridin-2-yl)ethyl)piperazin-1-yl)phenyl)-1H-pyrazolo[3,4-b]pyridin-3-yl)-2-methylphenyl)ethyl)-1,2,4-oxadiazole-5-carboxamide] | 2.14 nM |

Now from value to compound:

| DC50 | SMILES |
| --- | --- |
| 62.1 nM | Cc1cc(-c2n[nH]c3nc(-c4ccc(N5CCN(CC6CCN(c7ccc(N8CCC(=O)NC8=O)cc7)CC6)CC5)cc4)ccc23)ccc1[C@@H](C)NC(=O)c1noc(C(C)(C)C)n1 [Example 157, (R)-5-(tert-butyl)-N-(1-(4-(6-(4-(4-((1-(4-(2,4-dioxotetrahydropyrimidin-1(2H)-yl)phenyl)piperidin-4-yl)methyl)piperazin-1-yl)phenyl)-1H-pyrazolo[3,4-b]pyridin-3-yl)-2-methylphenyl)ethyl)-1,2,4-oxadiazole-3-carboxamide] |
| 56.3 nM | Cc1cc(-c2n[nH]c3ncc(-c4ccc(N5CCN(CCc6ccc(N7CCC(=O)NC7=O)nc6)CC5)cc4)cc23)ccc1[C@@H](C)NC(=O)c1noc(C(C)(C)C)n1 [Example 159, (R)-5-(tert-butyl)-N-(1-(4-(5-(4-(4-(2-(6-(2,4-dioxotetrahydropyrimidin-1(2H)-yl)pyridin-3-yl)ethyl)piperazin-1-yl)phenyl)-1H-pyrazolo[3,4-b]pyridin-3-yl)-2-methylphenyl)ethyl)-1,2,4-oxadiazole-3-carboxamide] |
| 10.6 nM | Cc1cc(-c2n[nH]c3ncc(-c4ccc(N5CCN(CC(C)c6ccc(N7CCC(=O)NC7=O)cc6)CC5)cc4)cc23)ccc1[C@@H](C)NC(=O)c1noc(C(C)(C)C)n1 (stereo partly drawn) [Example 160, 5-(tert-butyl)-N-((1R)-1-(4-(5-(4-(4-(2-(4-(2,4-dioxotetrahydropyrimidin-1(2H)-yl)phenyl)propyl)piperazin-1-yl)phenyl)-1H-pyrazolo[3,4-b]pyridin-3-yl)-2-methylphenyl)ethyl)-1,2,4-oxadiazole-3-carboxamide] |
| 5.27 nM | Cc1cc(-c2n[nH]c3ncc(-c4ccc(N5CCN(CCc6ccc([C@@H]7CCC(=O)NC7=O)cc6)CC5)cn4)cc23)ccc1[C@@H](C)NC(=O)c1noc(C(C)(C)C)n1 [Example 161, 5-(tert-butyl)-N—((R)-1-(4-(5-(5-(4-(4-((S)-2,6-dioxopiperidin-3-yl)phenethyl)piperazin-1-yl)pyridin-2-yl)-1H-pyrazolo[3,4-b]pyridin-3-yl)-2-methylphenyl)ethyl)-1,2,4-oxadiazole-3-carboxamide] |
| 1.01 nM | Cc1cc(-c2n[nH]c3ncc(-c4ccc(N5CCN(CCc6ccc([C@H]7CCC(=O)NC7=O)cc6)CC5)cn4)cc23)ccc1[C@@H](C)NC(=O)c1noc(C(C)(C)C)n1 [Example 162, 5-(tert-butyl)-N—((R)-1-(4-(5-(5-(4-(4-((R)-2,6-dioxopiperidin-3-yl)phenethyl)piperazin-1-yl)pyridin-2-yl)-1H-pyrazolo[3,4-b]pyridin-3-yl)-2-methylphenyl)ethyl)-1,2,4-oxadiazole-3-carboxamide] |
| 2.13 nM | Cc1cc(-c2n[nH]c3ncc(-c4ccc(N5CCN(CCc6ccc(C7CCC(=O)NC7=O)c(C)n6)CC5)cn4)cc23)ccc1[C@@H](C)NC(=O)c1noc(C(C)(C)C)n1 (stereo partly drawn) [Example 163, 5-(tert-butyl)-N-((1R)-1-(4-(5-(5-(4-(2-(5-(2,6-dioxopiperidin-3-yl)-6-methylpyridin-2-yl)ethyl)piperazin-1-yl)pyridin-2-yl)-1H-pyrazolo[3,4-b]pyridin-3-yl)-2-methylphenyl)ethyl)-1,2,4-oxadiazole-3-carboxamide] |
| 2.05 nM | Cc1cc(-c2n[nH]c3ncc(-c4ccc(N5CCN(CCn6nc(C)c(N7CCC(=O)NC7=O)c6C)CC5)cc4)cc23)ccc1[C@@H](C)NC(=O)c1noc(C(C)(C)C)n1 [Example 164, (R)-5-(tert-butyl)-N-(1-(4-(5-(4-(4-(2-(4-(2,4-dioxotetrahydropyrimidin-1(2H)-yl)-3,5-dimethyl-1H-pyrazol-1-yl)ethyl)piperazin-1-yl)phenyl)-1H-pyrazolo[3,4-b]pyridin-3-yl)-2-methylphenyl)ethyl)-1,2,4-oxadiazole-3-carboxamide] |
| 2.7 nM | Cc1cc(-c2n[nH]c3ncc(-c4ccc(N5CCC(CN6CCN(c7ccc(N8CCC(=O)NC8=O)cn7)CC6)CC5)cc4)cc23)ccc1[C@@H](C)NC(=O)c1noc(C(C)(C)C)n1 [Example 165, (R)-5-(tert-butyl)-N-(1-(4-(5-(4-(4-((4-(5-(2,4-dioxotetrahydropyrimidin-1(2H)-yl)pyridin-2-yl)piperazin-1-yl)methyl)piperidin-1-yl)phenyl)-1H-pyrazolo[3,4-b]pyridin-3-yl)-2-methylphenyl)ethyl)-1,2,4-oxadiazole-3-carboxamide] |
| 3.07 nM | Cc1nc(CCN2CCN(c3ccc(-c4cnc5[nH]nc(-c6ccc([C@@H](C)NC(=O)c7noc(C(C)(C)C)n7)c(C)c6F)c5c4)cc3)CC2)ccc1C1CCC(=O)NC1=O (stereo partly drawn) [Example 166, 5-(tert-butyl)-N-((1R)-1-(4-(5-(4-(4-(2-(5-(2,6-dioxopiperidin-3-yl)-6-methylpyridin-2-yl)ethyl)piperazin-1-yl)phenyl)-1H-pyrazolo[3,4-b]pyridin-3-yl)-3-fluoro-2-methylphenyl)ethyl)-1,2,4-oxadiazole-3-carboxamide] |
